Entries after “also recorded” stand apart in the source; their conditions may differ.
Key:
[1] = system: CD34+ umbilical cord blood HSPCs; assay: UNC0642 treatment during T cell differentiation, flow cytometry; assay type: cell-based, human; details: continuous treatment 10, 50, 100, 500 nM; 28 days of differentiation; vs DMSO control
Excerpt: Error bars represent the standard deviation across n=3 independent differentiations per dose of UNC0642. *=p<0.05 compared to the DMSO control using a two-tailed Wilcoxon sum-rank test.
Error bars represent standard deviation. N=3 independent differentiation replicates per dose of UNC0642.
CD34+ umbilical cord blood cells (AllCells) were thawed from liquid nitrogen storage and T cell differentiation was immediately initiated with a StemSpan T cell Generation Kit (Stem Cell Technologies, 09940), as described above. Cells were treated with UNC0642 (Cayman Chemical, 14604) over the entire duration of the differentiation and fresh compound was supplemented every 3-4 days to the media. A range of doses were tested (10 nM, 50 nM, 100 nM, and 500 nM) alongside a 0.5% DMSO vehicle control with n=3 replicate differentiations per condition. Cells were collected after 28 days of differentiation to assess NK and T cell populations by flow cytometry.

[2] = system: FKBP12^F36V tagged TRIM28; assay: Western-blot for TRIM28 on dTAG knockin iPS clones; assay type: cell-based, human; details: 500 nM, 24 hours, four iPS clones, vs DMSO
Description: FIG. 35A-35F examines rapid and selective degradation of endogenous TRIM28 in human iPS cells. […] An mNeon-FKBP12^F36V open reading frame DNA sequence was knocked into the TRIM28 locus (SEQ ID NO: 32) to tag the N-terminus of TRIM28 and thus create an mNeon-FKBP12^F36V-TRIM28 fusion protein. The knockin was achieved through CRISPR/Cas9-mediated HDR (gRNA, SEQ ID: 31) where the knockin cassette was delivered to cells in an rAAV6 vector. FIG. 35B examines bulk knockin efficiency was assessed with flow cytometry for mNeon five days after simultaneous CRISPR/Cas9 RNP nucleofection and rAAV6 infection of iPS cells (MOI: 50,000 viral genomes/cells). […] The wild-type, unedited locus results in an amplicon of 1,204 bp and the knockin locus generates an amplicon of 2,371 bp. (*) denotes biallelic knockin clones. FIG. 35D analyzes microscopy for DAPI and mNeon on a biallelic knockin iPS clone to visualize nuclear localization of mNeon signal, consistent with the known nuclear localization of endogenous TRIM28 proteins. FIG. 35E examines titration of degrader molecules (dTAG-13 and dTAG^V-1) on a biallelic knockin iPS clone, assayed by flow cytometry for mNeon as a quantitative proxy for TRIM28 protein expression.

[3] = system: CD34+ umbilical cord blood HSPCs; assay: In vitro T cell differentiation (Notch-based, stroma-free) of CRISPR/Cas9 RNP-edited HSPCs, flow cytometry; set-up: species or system human; details: six weeks of in vitro differentiation, Cas9 RNP knockout of EHMT1, n=3; for CD56+CD3− natural killer (NK) cells (fractional abundance within CD45+DAPI− population): AAVS1-targeting gRNA control: 1.2±0.45%; for CD56−CD3+ T cells (fractional abundance within CD45+DAPI− population): AAVS1-targeting gRNA control: 38.7±12.5%
Description: Genetic knockouts of select genes were generated in primary hematopoietic stem and progenitor cells (HSPCs) via nucleofection of CRISPR/Cas9 ribonucleoproteins (RNPs). Two independent knockouts were generated for each gene using separate gRNAs and knockouts were replicated across two different donor pools of human umbilical cord blood. First, CD34+ cord blood cells (AllCells) were thawed via dropwise addition of RPMI 1640+10% FBS. Cells were centrifuged at 200 g for 8 minutes and subsequently washed with FACS buffer (PBS+2% FBS). Cells were cultured for 48 hours prior to nucleofection at a density of 250,000 cells/mL in SFEM II™ media (StemCell Technologies) supplemented with 100 ng/mL SCF, TPO, FLT3L, and IL-6 (Peprotech) within a 5% O2, 5% CO2, 37° C. incubator. Next, the top two protospacer sequences for each desired gene were selected from the Brunello genome-wide knockout library (Broad Institute) based on the Rule Set 2 score. A control gRNA targeting the AAVS1 locus was designed in Benchling™. All gRNA sequences were synthesized by IDT as an Alt-R CRISPR/Cas9 sgRNA. RNPs were complexed by incubating 105 pmol of Cas9 protein (IDT) with 125 pmol of sgRNA in a 5 uL total volume for 10 minutes at room temperature. CD34+ cord blood HSPCs were washed with FACS buffer and 125,000 cells were resuspended in 20 μL of P3 Primary Cell Nucleofection Solution (Lonza) per nucleofection. RNPs were nucleofected into HSPCs with 3.85 uM electroporation enhancer (IDT) using a 16-reaction nucleovette on a Lonza 4D-Nucleofector (program DZ-100). Cells were cultured for 36-48 hours at 5% O2, 5% CO2 in 96-well U-bottom plates (Corning) then subsequently harvested for genomic DNA extraction and initiation of in vitro differentiation assays.
Following 36-48 hours post-nucleofection of Cas9 RNPs, 5,000 cord blood HSPCs were differentiated to T cell lineages using the StemSpan™ T cell Generation Kit (Stem Cell Technologies) per the manufacturer's instructions with n=3 replicate differentiations per gRNA. Total viable cell counts were performed on Day 14, 28 and 42 of differentiation. T cell development was assessed by flow cytometry on days 14 and 42 of differentiation to assess lymphoid progenitors (CD45, CD5 and CD7) and mature T cells (CD45, CD4, CD8, CD3, CD56, CD5 and CD7), respectively. Cells were stained with propidium iodide as a viability marker and the following antibodies for flow cytometry: CD45 APC-Cy7 (557833, BD Biosciences), CD4 PE-Cy5 (IM2636U, Beckman Coulter Immunotech), CD8-BV421 (RPA-T8, BD Horizon), CD5-BV510 (UCHT2, BD Biosciences), CD3-PE-Cy7 (UCHT1, BD Pharmigen), CD7-PE (555361, BD Pharmigen), CD56 FITC (BD Pharmigen). […]

| Compound | proportion of CD56+CD3− NK cells and CD56−CD3+ T cells [1] | TRIM28 protein degradation [2] | CD56+CD3− natural killer (NK) cells (fractional abundance within CD45+DAPI− population) [3] [%] | CD56−CD3+ T cells (fractional abundance within CD45+DAPI− population) [3] [%] |
| --- | --- | --- | --- | --- |
| COc1cc2c(NC3CCN(C(C)C)CC3)nc(N3CCC(F)(F)CC3)nc2cc1OCCCN1CCCC1 [UNC0642] | dose-dependent acquisition of NK cells; also recorded: dose-dependent phenocopy of the EHMT1 CRISPR/Cas9 knockout |  |  |  |
| CC[C@H](C(=O)N1CCCC[C@H]1C(=O)O[C@H](CCc1ccc(OC)c(OC)c1)c1ccccc1OCC(=O)NCCCCCCC(=O)N[C@H](C(=O)N1C[C@H](O)C[C@H]1C(=O)N[C@@H](C)c1ccc(-c2scnc2C)cc1)C(C)(C)C)c1cc(OC)c(OC)c(OC)c1 [dTAG^V-1] |  | near-complete degradation |  |  |
| EHMT1 gRNA01: SEQ ID NO: 5, GGGCCGGTGCACAAACAGCG; Alt-R CRISPR/Cas9 sgRNA delivered as Cas9 RNP (guide GGGCCGGUGCACAAACAGCG; IDT Alt-R synthetic sgRNA, modifications not given here) |  |  | 35.4±5.7 | 13.9±1.8 |
| EHMT1 gRNA02: SEQ ID NO: 6, TTCGGCTGCTTCCATCAACG; Alt-R CRISPR/Cas9 sgRNA delivered as Cas9 RNP (guide UUCGGCUGCUUCCAUCAACG; IDT Alt-R synthetic sgRNA, modifications not given here) |  |  | 58.7±4.9 | 6.6±0.69 |

— patent publication US20250354117A1, “METHODS OF GENERATING NATURAL KILLER CELLS FROM PLURIPOTENT STEM CELLS AND COMPOSITIONS THEREOF” (THE CHILDREN'S MEDICAL CENTER CORPORATION, priority 2022, published 2025)
